Assay results reported in patent US8551721B2, “Bioluminescent detection of cyanohydroxy benzothiazole compounds” (Promega Corporation, priority 2008, dated 2013).

How the values were obtained:
Type in all cases: biochemical
Settings in all cases: 2 hour incubation at 37° C., plus vs minus UDPGA
UGT 2B4 = molecular target: T1, UGT 2B4 (Homo sapiens, UniProt P06133); assay: UGT activity: utilization of substrate by recombinant UGT 2B4 Supersomes
T1 construct: purchased BD Gentest; host or cells: insect cells (microsomes)
T1 sequence (P06133 24-528): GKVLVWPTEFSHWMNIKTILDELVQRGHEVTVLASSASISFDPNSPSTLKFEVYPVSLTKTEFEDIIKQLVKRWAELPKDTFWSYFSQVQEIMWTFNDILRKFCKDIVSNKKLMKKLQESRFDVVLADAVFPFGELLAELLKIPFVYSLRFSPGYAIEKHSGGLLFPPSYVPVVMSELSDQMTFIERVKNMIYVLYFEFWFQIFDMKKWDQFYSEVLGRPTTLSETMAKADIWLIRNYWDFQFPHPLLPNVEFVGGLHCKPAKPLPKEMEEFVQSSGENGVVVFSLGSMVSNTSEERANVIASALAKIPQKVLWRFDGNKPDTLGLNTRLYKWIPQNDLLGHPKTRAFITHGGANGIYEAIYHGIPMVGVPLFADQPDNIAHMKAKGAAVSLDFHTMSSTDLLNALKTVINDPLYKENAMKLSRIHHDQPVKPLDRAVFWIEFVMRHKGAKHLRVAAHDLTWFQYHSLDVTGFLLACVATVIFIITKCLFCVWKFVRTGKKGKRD
Description: (§1) The invention includes a method of determining activity of the uridine 5′-diphospho-glucuronosyltransferase (UDP-glucuronosyltransferase, or UGT) family enzymes in vitro. Briefly, UGT enzymes from overexpressed insect microsomes (Supersomes™, BD Gentest™) or animal tissue microsomes (Xenotech, BD Gentest™) were incubated with a cyanobenzothiazole substrate of the invention and the cofactor UDP-glucuronic acid (UDPGA) at 37° C. in buffer at physiological pH containing MgCl2 and alamethicin (typically, 50 mM TES, pH 7.5, 8 mM MgCl2, 4 mM UDPGA (Sigma) and 25 μg/mL alamethicin (Sigma)). Following the UGT enzyme reaction, an equal volume of P450-Glo Luciferin Detection Reagent (Promega) containing 15-30 mM D-cysteine-HCl.H2O (Sigma) was added and the plate was mixed and incubated at room temperature, typically for 20-30 minutes. […]
(§2) During this incubation, the cysteine reacts with the cyanobenzathiozole substrate to yield a D-luciferin derivative. […] Therefore, activity of the UGT enzyme can be measured by analyzing the difference (lower or no output) in relative light units (RLU) of a sample in which glucuronidation occurs compared to a sample that was run under the same conditions with no added UDPGA cofactor. […]
(§3) Reactions were assembled in a white 96-well plate. […] After the incubation was completed, the plate was read on a Veritas™ luminometer (Turner BioSystems, Inc.; Sunnyvale, Calif.). […]

UGT 1A7 = molecular target: T2, UGT 1A7 (Homo sapiens, UniProt Q9HAW7); assay: UGT activity: utilization of substrate by recombinant UGT 1A7 Supersomes
T2 construct: purchased BD Gentest; host or cells: insect cells (microsomes)
T2 sequence (Q9HAW7 26-530): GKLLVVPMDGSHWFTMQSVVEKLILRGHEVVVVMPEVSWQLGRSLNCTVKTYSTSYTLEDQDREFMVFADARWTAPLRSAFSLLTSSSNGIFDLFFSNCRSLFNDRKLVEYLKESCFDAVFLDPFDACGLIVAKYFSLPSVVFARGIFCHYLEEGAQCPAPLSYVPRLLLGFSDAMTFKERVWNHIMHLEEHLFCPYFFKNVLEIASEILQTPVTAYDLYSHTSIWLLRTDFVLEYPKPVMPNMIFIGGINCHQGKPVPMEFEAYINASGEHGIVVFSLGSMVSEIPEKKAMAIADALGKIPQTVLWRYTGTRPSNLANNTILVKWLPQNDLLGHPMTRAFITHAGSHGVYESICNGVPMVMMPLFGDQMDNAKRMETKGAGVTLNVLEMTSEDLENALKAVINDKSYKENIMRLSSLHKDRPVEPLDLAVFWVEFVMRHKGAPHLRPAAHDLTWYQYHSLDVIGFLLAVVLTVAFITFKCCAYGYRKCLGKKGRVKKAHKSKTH
Description: as §1, §2, §3

UGT 1A4 = molecular target: T3, UGT 1A4 (Homo sapiens, UniProt P22310); assay: UGT activity: utilization of substrate by recombinant UGT 1A4 Supersomes
T3 construct: purchased BD Gentest; host or cells: insect cells (microsomes)
T3 sequence (P22310 29-534): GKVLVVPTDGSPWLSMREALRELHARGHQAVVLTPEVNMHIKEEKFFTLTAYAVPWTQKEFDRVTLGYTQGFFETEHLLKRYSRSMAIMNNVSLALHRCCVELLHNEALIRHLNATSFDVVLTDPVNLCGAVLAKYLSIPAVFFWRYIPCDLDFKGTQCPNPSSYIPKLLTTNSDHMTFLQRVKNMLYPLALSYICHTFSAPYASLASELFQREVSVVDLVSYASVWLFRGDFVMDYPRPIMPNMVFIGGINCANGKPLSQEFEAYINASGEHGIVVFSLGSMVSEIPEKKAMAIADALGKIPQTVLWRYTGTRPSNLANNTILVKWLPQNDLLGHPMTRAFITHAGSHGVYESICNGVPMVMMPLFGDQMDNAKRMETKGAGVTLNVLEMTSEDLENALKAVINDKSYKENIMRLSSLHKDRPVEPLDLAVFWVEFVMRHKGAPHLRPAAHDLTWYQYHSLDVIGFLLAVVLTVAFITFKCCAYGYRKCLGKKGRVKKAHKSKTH
Description: The invention includes a method of determining activity of the uridine 5′-diphospho-glucuronosyltransferase (UDP-glucuronosyltransferase, or UGT) family enzymes in vitro. Briefly, UGT enzymes from overexpressed insect microsomes (Supersomes™, BD Gentest™) or animal tissue microsomes (Xenotech, BD Gentest™) were incubated with a cyanobenzothiazole substrate of the invention and the cofactor UDP-glucuronic acid (UDPGA) at 37° C. in buffer at physiological pH containing MgCl2 and alamethicin (typically, 50 mM TES, pH 7.5, 8 mM MgCl2, 4 mM UDPGA (Sigma) and 25 μg/mL alamethicin (Sigma)). Following the UGT enzyme reaction, an equal volume of P450-Glo Luciferin Detection Reagent (Promega) containing 15-30 mM D-cysteine-HCl.H2O (Sigma) was added and the plate was mixed and incubated at room temperature, typically for 20-30 minutes. P450-Glo Luciferin Detection Reagent can be prepared by dissolving a vial of Promega Luciferin Detection Reagent (Promega Part #V859B) with a vial of Promega P450-Glo Buffer (Promega Part #V865B).
During this incubation, the cysteine reacts with the cyanobenzathiozole substrate to yield a D-luciferin derivative. […] Therefore, activity of the UGT enzyme can be measured by analyzing the difference (lower or no output) in relative light units (RLU) of a sample in which glucuronidation occurs compared to a sample that was run under the same conditions with no added UDPGA cofactor.
In this example, a series of 12 recombinant UGTs expressed in insect microsomes (Supersomes™, BD Gentest™), as well as the control microsomes not expressing the UGT enzyme, were incubated with compound 3138, compound 3478, or compound 3165 as substrates, with or without the UDPGA co-factor. […]
as §3

Compound: Cc1cc(O)cc2sc(C#N)nc12 [compound 3138]
- utilization by UGT 2B4 (in words) (UGT 2B4): did not utilize either compound 3138 or 3478 to an appreciable extent
- utilization by UGT 1A7 (in words) (UGT 1A7): detectable levels of utilization above background
- utilization by UGT 1A4 (in words) (UGT 1A4): did not utilize either compound 3138 or 3478 to an appreciable extent

Compound: Cc1cc(O)cc2sc(C3=NC(C(=O)O)CS3)nc12 (stereo not drawn) [compound 3478]
- utilization by UGT 2B4 (in words) (UGT 2B4): did not utilize either compound 3138 or 3478 to an appreciable extent
- utilization by UGT 1A7 (in words) (UGT 1A7): only UGT 1A6 was able to utilize compound 3478 to any appreciable extent
- utilization by UGT 1A4 (in words) (UGT 1A4): did not utilize either compound 3138 or 3478 to an appreciable extent
